Test results reported in patent US8722052B2, “Vaccinia virus protein A46 peptide and use thereof” (priority 2008, dated 2014).
Entries after “also recorded” stand apart in the source; their conditions may differ. Like-named read-outs stand apart in the source and are kept apart here. Square brackets hold non-standard residues; d marks the D form. Ends that are not written are not given here.

What was measured:
[1] = test system: IL-12p40; assay: LPS-induced serum IL-12p40 in mice, ELISA; assay type: in vivo; details: female BALB/c mice, serum at 4 hours; for serum IL-12p40 level compared with PBS-treated animals: i.v. 1 μg LPS with 3 mg/kg peptide; for inhibition of LPS-induced serum IL-12p40: i.v. single bolus 1 μg LPS with 3 mg/kg peptide
Description: FIG. 30 is a graph showing that A464 inhibits LPS-induced IL-12/23 p40 in vivo. Groups of 5 female BALB/c mice were injected i.v. with a single bolus of one of the following: PBS, 1 μg LPS, 1 μg LPS with 3 mg/kg D-9RN-A464 (SEQ ID NO. 38), 1 μg LPS with 3 mg/kg L-9RN-A464 (SEQ ID NO. 38), or 1 μg LPS with 3 mg/kg L-9RN-A467 (SEQ ID NO. 39). Four hours later, blood was harvested and serum derived. The serum was assayed for IL-12p40 by ELISA. Concentrations are expressed as pg/ml. * p<0.05, *** p<0.001 samples versus LPS. # p<0.01 samples versus PBS.
Cytokine and chemokine production from cells or mouse serum was measured by ELISA using Duoset kits from R&D systems, according to the manufacturer's instructions.
To do this we used a well characterised model of Gram negative sepsis, where mice are injected with LPS and serum cytokines are later analysed by ELISA. […] Mice were injected i.v. with LPS alone, or with peptide in the presence of LPS. Four hours later serum IL-12p40 concentrations were measured. […] Thus peptides based on the 464 sequence (SEQ ID No. 4) have efficacy in vivo. Thus peptides comprising the 464 sequence (SEQ ID No.4) can inhibit LPS induced proinflammatory IL-12p40 in vivo.

[2] = target: T1, TLR2 (Mus musculus, UniProt Q9QUN7); assay: TLR2 response in murine cells; assay type: cell-based
T1 construct: endogenous in cells
T1 sequence (Q9QUN7 25-784): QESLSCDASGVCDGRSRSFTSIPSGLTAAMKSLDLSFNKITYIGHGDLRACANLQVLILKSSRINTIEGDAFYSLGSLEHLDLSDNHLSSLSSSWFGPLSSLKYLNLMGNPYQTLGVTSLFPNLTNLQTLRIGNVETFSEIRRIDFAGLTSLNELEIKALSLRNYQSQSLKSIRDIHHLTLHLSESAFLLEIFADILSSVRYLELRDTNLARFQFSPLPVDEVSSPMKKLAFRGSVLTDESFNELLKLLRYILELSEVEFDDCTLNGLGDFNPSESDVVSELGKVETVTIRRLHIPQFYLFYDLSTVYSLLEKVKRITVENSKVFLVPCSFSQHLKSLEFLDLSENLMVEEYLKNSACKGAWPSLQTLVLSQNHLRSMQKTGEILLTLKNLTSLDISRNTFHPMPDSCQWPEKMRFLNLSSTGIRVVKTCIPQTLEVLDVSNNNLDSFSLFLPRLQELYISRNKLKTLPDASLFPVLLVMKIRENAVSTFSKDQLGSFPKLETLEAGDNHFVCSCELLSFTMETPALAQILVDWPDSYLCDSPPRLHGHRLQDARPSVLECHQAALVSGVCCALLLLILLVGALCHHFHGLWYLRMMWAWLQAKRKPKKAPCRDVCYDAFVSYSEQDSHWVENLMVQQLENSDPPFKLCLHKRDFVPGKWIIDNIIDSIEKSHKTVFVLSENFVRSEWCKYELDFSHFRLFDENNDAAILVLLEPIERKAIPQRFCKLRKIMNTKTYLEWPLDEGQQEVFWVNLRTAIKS

[3] = test system: TLR4; assay type: cell-based, human; details: THP-1; for inhibition of LPS-induced TNFα production: 6 h
Sequence of TLR4 (O00206 24-839): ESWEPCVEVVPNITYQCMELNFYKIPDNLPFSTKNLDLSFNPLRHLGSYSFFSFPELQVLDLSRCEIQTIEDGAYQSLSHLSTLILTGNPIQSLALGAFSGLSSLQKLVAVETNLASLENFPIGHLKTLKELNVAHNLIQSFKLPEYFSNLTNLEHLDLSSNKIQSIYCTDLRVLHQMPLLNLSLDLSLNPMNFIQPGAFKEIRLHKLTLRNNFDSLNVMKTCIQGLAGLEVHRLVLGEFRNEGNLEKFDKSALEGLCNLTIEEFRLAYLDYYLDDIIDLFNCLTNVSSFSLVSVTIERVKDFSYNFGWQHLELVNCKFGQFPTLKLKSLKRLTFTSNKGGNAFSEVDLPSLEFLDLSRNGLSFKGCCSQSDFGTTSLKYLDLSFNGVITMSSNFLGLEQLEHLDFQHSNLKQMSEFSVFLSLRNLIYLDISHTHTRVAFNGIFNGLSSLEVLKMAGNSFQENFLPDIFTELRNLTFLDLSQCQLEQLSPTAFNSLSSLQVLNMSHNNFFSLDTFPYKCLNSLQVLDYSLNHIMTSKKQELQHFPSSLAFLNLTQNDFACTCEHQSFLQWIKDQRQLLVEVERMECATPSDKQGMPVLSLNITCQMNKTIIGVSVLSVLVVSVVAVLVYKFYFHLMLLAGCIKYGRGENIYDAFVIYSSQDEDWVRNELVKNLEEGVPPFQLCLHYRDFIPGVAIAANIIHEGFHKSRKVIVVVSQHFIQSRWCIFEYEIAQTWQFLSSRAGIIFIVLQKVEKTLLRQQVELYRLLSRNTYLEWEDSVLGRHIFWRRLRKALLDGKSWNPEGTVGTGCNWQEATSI
Sequence of TLR4 (Q9Y6Y9 17-160 partner limits assumed): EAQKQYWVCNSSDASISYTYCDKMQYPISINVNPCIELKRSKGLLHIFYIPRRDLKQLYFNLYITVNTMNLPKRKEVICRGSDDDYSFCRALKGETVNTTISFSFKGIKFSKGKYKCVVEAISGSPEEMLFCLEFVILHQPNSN

In the case of “9RN-A464 (RRRRRRRRRKYSFKLILAEY) [Peptide 9RN-A464]”, the “serum IL-12p40 level compared with PBS-treated animals” value ([1]; listed as L-9RN-A464, 3 mg/kg) is reported as “not significantly different from mice receiving only PBS; also recorded: not significantly different from the PBS-treated animals” and the “inhibition of LPS-induced serum IL-12p40” value [1] is reported as “significantly inhibited LPS-induced IL-12p40”.

In the case of “D-9RN-A464 ([dR][dR][dR][dR][dR][dR][dR][dR][dR][dK][dY][dS][dF][dK][dL][dI][dL][dA][dE][dY]) [Peptide D-9RN-A464]”, the “serum IL-12p40 level compared with PBS-treated animals” value ([1]; 3 mg/kg) is reported as “not significantly different from mice receiving only PBS; also recorded: not significantly different from the PBS-treated animals” and the “inhibition of LPS-induced serum IL-12p40” value [1] is reported as “significantly inhibited LPS-induced IL-12p40”.

In the case of KYSFKLILAEYRRRRRRRRR [Peptide A464], the “effect on TLR2 in murine cells” value [2] is reported as “unaffected”, the “inhibition of LPS-induced hTNFα production, peptide added after LPS” value ([3]; 5 and 10 μM peptide added 1 hour after LPS stimulation) is reported as “almost completely inhibited” and the “inhibition of LPS-induced TNFα production” value ([3]; peptide 5 or 10 μM 1 h before 10 ng/ml LPS) is reported as “complete inhibition of TLR4 was achieved at 5 and 10 μM”. For the same substance, the “inhibition of LPS-induced TNFα production” value ([3]; peptide 20 or 40 μM 1 h before 100 ng/ml LPS) was 20 μM A464 (SEQ ID No. 20) inhibited TLR4-mediated TNFα production.
